The supplement of paper PMC10307832

How the values were obtained:
Assay in all cases: relative viability (nuclei count vs DMSO), 5 days (fraction); higher = more cells survive
Fedratinib + OSI-027 = compound: Cc1cnc(Nc2ccc(OCCN3CCCC3)cc2)nc1Nc1cccc(S(=O)(=O)NC(C)(C)C)c1 [Fedratinib] + COc1cccc2cc(-c3nc([C@H]4CC[C@H](C(=O)O)CC4)n4ncnc(N)c34)[nH]c12 [OSI-027] (partner 0.5 µM)
Method in brief: (§1)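 Each reported value is a median over duplicate plates. It expresses relative viability: treated-well nuclei count divided by vehicle-well nuclei count. Lung cancer cell lines in 1536-well plates were dosed by pin tool a day after seeding, alone with one drug or with a fixed anchor-drug dose plus five library-drug doses (not always all listed) in √10 steps, and nuclei were counted after 5 days.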

Fedratinib + Navitoclax = compound: Cc1cnc(Nc2ccc(OCCN3CCCC3)cc2)nc1Nc1cccc(S(=O)(=O)NC(C)(C)C)c1 [Fedratinib] + CC1(C)CCC(c2ccc(Cl)cc2)=C(CN2CCN(c3ccc(C(=O)NS(=O)(=O)c4ccc(N[C@H](CCN5CCOCC5)CSc5ccccc5)c(S(=O)(=O)C(F)(F)F)c4)cc3)CC2)C1 [Navitoclax] (partner 0.5 µM)
Method in brief: as §1

GW-2580 + Lapatinib = compound: COC1=CC=C(C=C1)COC2=C(C=C(C=C2)CC3=CN=C(N=C3N)N)OC [GW-2580] + CS(=O)(=O)CCNCc1ccc(-c2ccc3ncnc(Nc4ccc(OCc5cccc(F)c5)c(Cl)c4)c3c2)o1 [Lapatinib] (partner 2 µM)
Method in brief: as §1

Fedratinib + Luminespib = compound: Cc1cnc(Nc2ccc(OCCN3CCCC3)cc2)nc1Nc1cccc(S(=O)(=O)NC(C)(C)C)c1 [Fedratinib] + CCNC(=O)c1noc(-c2cc(C(C)C)c(O)cc2O)c1-c1ccc(CN2CCOCC2)cc1 [Luminespib] (partner 0.01 µM)
Method in brief: as §1

Fedratinib + AZD7762 = compound: Cc1cnc(Nc2ccc(OCCN3CCCC3)cc2)nc1Nc1cccc(S(=O)(=O)NC(C)(C)C)c1 [Fedratinib] + NC(=O)Nc1cc(-c2cccc(F)c2)sc1C(=O)N[C@H]1CCCNC1 [AZD7762] (partner 0.2 µM)
Method in brief: as §1

Fedratinib + Dasatinib = compound: Cc1cnc(Nc2ccc(OCCN3CCCC3)cc2)nc1Nc1cccc(S(=O)(=O)NC(C)(C)C)c1 [Fedratinib] + Cc1nc(Nc2ncc(C(=O)Nc3c(C)cccc3Cl)s2)cc(N2CCN(CCO)CC2)n1 [Dasatinib] (partner 0.075 µM)
Method in brief: as §1

| Cell Line | relative viability (Fedratinib + OSI-027; first compound 0.1 µM) | relative viability (Fedratinib + OSI-027; first compound 0.3162 µM) | relative viability (Fedratinib + OSI-027; first compound 1 µM) | relative viability (Fedratinib + Navitoclax; first compound 0.1 µM) | relative viability (Fedratinib + Navitoclax; first compound 0.3162 µM) | relative viability (Fedratinib + Navitoclax; first compound 1 µM) | relative viability (GW-2580 + Lapatinib; first compound 0.08 µM) | relative viability (GW-2580 + Lapatinib; first compound 0.8 µM) | relative viability (GW-2580 + Lapatinib; first compound 2.53 µM) | relative viability (GW-2580 + Lapatinib; first compound 8 µM) | relative viability (Fedratinib + Luminespib; first compound 0.1 µM) | relative viability (Fedratinib + Luminespib; first compound 0.3162 µM) | relative viability (Fedratinib + Luminespib; first compound 1 µM) | relative viability (Fedratinib + AZD7762; first compound 0.1 µM) | relative viability (Fedratinib + AZD7762; first compound 0.3162 µM) | relative viability (Fedratinib + AZD7762; first compound 1 µM) | relative viability (Fedratinib + Dasatinib; first compound 0.1 µM) | relative viability (Fedratinib + Dasatinib; first compound 0.3162 µM) | relative viability (Fedratinib + Dasatinib; first compound 1 µM) |
| --- | --- | --- | --- | --- | --- | --- | --- | --- | --- | --- | --- | --- | --- | --- | --- | --- | --- | --- | --- |
| NCI-H838 | 0.31 | 0.471 | 0.259 | 1.11 | 1.17 | 1.06 | 0.994 | 1.11 | 0.789 | 0.987 | 0.454 | 0.379 | 0.334 | 0.961 | 0.913 | 0.906 | 0.281 | 0.29 | 0.239 |
| NCI-H1355 | 0.323 | 0.437 | 0.258 | 0.796 | 0.973 | 0.949 | 1.08 | 1.2 | 0.817 | 1.01 | 0.59 | 0.702 | 0.696 | 0.646 | 0.707 | 0.612 | 0.67 | 0.75 | 0.374 |
| NCI-H1395 | 0.553 | 0.694 | 0.545 | 1.3 | 1.13 | 0.962 | 0.994 | 0.95 | 0.88 | 0.912 | 0.661 | 0.868 | 0.62 | 0.385 | 0.402 | 0.377 | 0.36 | 0.45 | 0.378 |
| NCI-H1437 | 0.911 | 0.924 | 0.825 | 1.14 | 1.02 | 0.988 | 0.82 | 0.965 | 0.723 | 0.781 | 1.11 | 1.04 | 1.13 | 1.13 | 1.13 | 1.09 | 0.301 | 0.409 | 0.329 |
| NCI-H1651 | 0.707 | 0.653 | 0.62 | 0.914 | 0.958 | 1.07 | 1.08 | 0.909 | 0.778 | 0.956 | 0.764 | 0.716 | 1.09 | 0.502 | 0.404 | 0.435 | 0.437 | 0.418 | 0.329 |
| NCI-H1666 | 0.837 | 0.793 | 0.898 | 0.877 | 0.96 | 0.946 | 0.601 | 0.757 | 0.847 | 0.431 | 0.92 | 0.977 | 1.01 | 0.751 | 0.836 | 0.807 | 0.843 | 0.675 | 0.731 |
| NCI-H1734 | 0.607 | 0.588 | 0.536 | 0.852 | 0.865 | 0.828 | 1.17 | 1 | 1.01 | 1.01 | 0.179 | 0.205 | 0.185 | 0.709 | 0.512 | 0.515 | 0.455 | 0.464 | 0.4 |
| NCI-H1755 | 0.601 | 0.757 | 0.651 | 1 | 0.972 | 0.894 | 1.12 | 1.28 | 0.94 | 0.96 | 0.367 | 0.595 | 0.381 | 0.422 | 0.47 | 0.43 | 0.351 | 0.404 | 0.39 |
| NCI-H1792 | 0.607 | 0.808 | 0.748 | 0.653 | 0.58 | 0.59 | 0.936 | 1.1 | 0.484 | 1.1 | 0.231 | 0.419 | 0.362 | 0.58 | 0.774 | 0.483 | 0.619 | 0.765 | 0.81 |
| NCI-H1793 | 0.237 | 0.271 | 0.234 | 0.295 | 0.456 | 0.476 | 0.803 | 0.74 | 0.571 | 0.459 | 0.174 | 0.163 | 0.204 | 0.324 | 0.402 | 0.326 | 0.4 | 0.348 | 0.362 |
| NCI-H1915 | 0.612 | 0.67 | 0.319 | 0.747 | 0.726 | 0.761 | 1.13 | 1.05 | 1.04 | 1.03 | 0.823 | 0.754 | 0.734 | 0.754 | 0.66 | 0.67 | 0.258 | 0.307 | 0.179 |
| NCI-H1944 | 0.343 | 0.413 | 0.344 | 1.04 | 1.07 | 1.03 | 0.843 | 0.98 | 0.82 | 0.897 | 0.741 | 0.801 | 0.763 | 0.475 | 0.594 | 0.458 | 0.21 | 0.235 | 0.196 |
| NCI-H1975 | 0.729 | 0.833 | 0.602 | 1.08 | 1.01 | 0.953 | 0.925 | 1.09 | 0.885 | 0.834 | 0.235 | 0.266 | 0.178 | 0.562 | 0.676 | 0.566 | 0.329 | 0.362 | 0.285 |
| NCI-H1993 | 0.519 | 0.522 | 0.524 | 0.75 | 0.869 | 0.903 | 0.775 | 0.904 |  | 0.907 | 0.679 | 0.85 | 1.1 | 0.816 | 0.694 | 0.688 | 0.591 | 0.545 | 0.62 |
| NCI-H2085 | 0.586 | 0.855 | 0.711 | 1.01 | 1.01 | 0.883 | 0.849 | 0.988 | 0.626 | 0.713 | 0.415 | 0.463 | 0.408 | 0.952 | 0.925 | 0.928 | 0.259 | 0.26 | 0.246 |
| NCI-H2087 | 0.486 | 0.453 | 0.425 | 0.928 | 0.962 | 1 | 1.43 | 1.18 | 1.04 | 0.991 | 0.17 | 0.18 | 0.14 | 1.39 | 1.37 | 1.42 | 0.803 | 0.536 | 0.648 |
